The NIST ThermoML archive (doi:10.1016/j.fluid.2005.10.023)
Numbers after ± are expanded uncertainties.

Experiment: xn = mol fraction of the nth substance listed
Details: Gas, Other PVT measurement

## CCCCCC [hexane] + O=C=O
323.15 K, x1 = 0.0373
  mass density: 355 ± 21 kg/m3
323.15 K, x1 = 0.0471
  mass density: 451 ± 20 kg/m3
323.15 K, x1 = 0.052
  mass density: 477 ± 20 kg/m3
328.15 K, x1 = 0.0373
  mass density: 294 ± 21 kg/m3
328.15 K, x1 = 0.0471
  mass density: 396 ± 20 kg/m3
328.15 K, x1 = 0.052
  mass density: 423 ± 20 kg/m3
328.15 K, x1 = 0.0618
  mass density: 436 ± 20 kg/m3
333.15 K, x1 = 0.0373
  mass density: 249 ± 20 kg/m3
333.15 K, x1 = 0.0471
  mass density: 343 ± 20 kg/m3
333.15 K, x1 = 0.052
  mass density: 378 ± 20 kg/m3
333.15 K, x1 = 0.0618
  mass density: 392 ± 20 kg/m3

## CCCCCl [1-chlorobutane] + O=C=O
323.15 K, x1 = 0.0257
  mass density: 347 ± 20 kg/m3
323.15 K, x1 = 0.03
  mass density: 386 ± 20 kg/m3
323.15 K, x1 = 0.0363
  mass density: 442 ± 20 kg/m3
323.15 K, x1 = 0.04
  mass density: 468 ± 20 kg/m3
328.15 K, x1 = 0.0257
  mass density: 300 ± 20 kg/m3
328.15 K, x1 = 0.03
  mass density: 343 ± 20 kg/m3
328.15 K, x1 = 0.0363
  mass density: 390 ± 20 kg/m3
328.15 K, x1 = 0.04
  mass density: 407 ± 20 kg/m3
328.15 K, x1 = 0.0497
  mass density: 467 ± 20 kg/m3
333.15 K, x1 = 0.03
  mass density: 286 ± 20 kg/m3
333.15 K, x1 = 0.0363
  mass density: 345 ± 20 kg/m3
333.15 K, x1 = 0.04
  mass density: 380 ± 20 kg/m3
333.15 K, x1 = 0.0497
  mass density: 419 ± 20 kg/m3

## C=Cc1ccccc1 [styrene] + O=C=O
323.15 K, x1 = 0.0182
  mass density: 479 ± 20 kg/m3
323.15 K, x1 = 0.0256
  mass density: 494 ± 20 kg/m3
323.15 K, x1 = 0.03
  mass density: 521 ± 20 kg/m3
328.15 K, x1 = 0.0182
  mass density: 450 ± 20 kg/m3
328.15 K, x1 = 0.0256
  mass density: 471 ± 20 kg/m3
328.15 K, x1 = 0.03
  mass density: 499 ± 20 kg/m3
328.15 K, x1 = 0.0343
  mass density: 529 ± 20 kg/m3
328.15 K, x1 = 0.0393
  mass density: 547 ± 20 kg/m3
328.15 K, x1 = 0.0476
  mass density: 580 ± 20 kg/m3
333.15 K, x1 = 0.0182
  mass density: 430 ± 20 kg/m3
333.15 K, x1 = 0.0256
  mass density: 453 ± 20 kg/m3
333.15 K, x1 = 0.03
  mass density: 479 ± 20 kg/m3
333.15 K, x1 = 0.0343
  mass density: 507 ± 20 kg/m3
333.15 K, x1 = 0.0393
  mass density: 527 ± 20 kg/m3
333.15 K, x1 = 0.0476
  mass density: 560 ± 20 kg/m3

## Clc1ccccc1 [chlorobenzene] + O=C=O
323.15 K, x1 = 0.024
  mass density: 471 ± 20 kg/m3
323.15 K, x1 = 0.0293
  mass density: 507 ± 20 kg/m3
323.15 K, x1 = 0.204
  mass density: 437 ± 20 kg/m3
328.15 K, x1 = 0.024
  mass density: 441 ± 20 kg/m3
328.15 K, x1 = 0.0293
  mass density: 481 ± 20 kg/m3
328.15 K, x1 = 0.0352
  mass density: 516 ± 20 kg/m3
328.15 K, x1 = 0.04
  mass density: 534 ± 20 kg/m3
328.15 K, x1 = 0.204
  mass density: 406 ± 20 kg/m3
333.15 K, x1 = 0.024
  mass density: 417 ± 20 kg/m3
333.15 K, x1 = 0.0293
  mass density: 458 ± 20 kg/m3
333.15 K, x1 = 0.0352
  mass density: 493 ± 20 kg/m3
333.15 K, x1 = 0.04
  mass density: 516 ± 20 kg/m3
333.15 K, x1 = 0.0482
  mass density: 556 ± 20 kg/m3
333.15 K, x1 = 0.204
  mass density: 386 ± 20 kg/m3
